Results reported in patent US20150010473A1, “DIAGNOSIS AND TREATMENT OF TUMORS” (MORPHOTEK, INC., priority 2006, published 2015).

How the values were obtained:
membrane of glioma cells = settings: Soroceanu et al. 1998; cited from earlier work
glioma cells [1] = settings: Ullrich and Sontheimer 1997; cited from earlier work
[2] = system: primitive neuroectodermal tumors; assay: Histochemical staining of biopsy sections with biotinylated chlorotoxin, summary; assay type: binding, human; settings: of 53 patients tested
Text: Most of the samples of human tissue, from both sexes, of different ages and races were obtained through the Cooperative Human Tissue Network, Tissue Procurement at UAB, UAB hospitals and the Human Brain Tissue Bank in London, Canada. Snap frozen tissue and fresh tissue embedded in a freezing gel were sliced at 8 microns and picked up onto positively charged glass slides. The sections were then fixed in 4% paraformaldehyde or milloniqs according to the staining protocol. Paraffin blocks were sectioned and prepared according to standard procedures.
Biopsy sections were blocked for 1 hour in 10% normal goat serum in PBS and treated with a dilution of biotinylated chlorotoxin overnight at 4° C. […]
Finally, a third adjacent section was stained with both hematoxylin, a cell nuclei specific stain, and eosin, a cytoplasmic stain. Therefore, for each tissue analyzed, three adjacent sections were stained. […] In the photomicrographs, adjacent sections are identified as follows: TM-601: biotinylated chlorotoxin detected by a brown reaction product of DAB with the biotin and further counterstained with methyl. green; Control: the control section stained with only methyl green; and, H&E: the hematoxylin and eosin stained section. […]

glioma cells [3] = settings: Transwell assays; Soroceanu et al.; cited from earlier work

chlorotoxin
binding to glioma cells (membrane of glioma cells): selectively binds to the membrane of glioma cells
effect on glioma cell proliferation (glioma cells [1]): enhances glioma cell proliferation
patients whose tumor material showed chlorotoxin specificity [2]: 50
effect on glioma cell migration (glioma cells [3]): inhibits the ability of glioma cells to migrate
